Experimental data from patent US4726941A, “Acylated cyanamide composition for treating ethanol ingestion” (Regents of the University of Minnesota, priority 1986, dated 1988).
Read-outs that look alike come from different tables or passages of the source.

Tests used:
[1] = tested on: aldehyde dehydrogenase (AlDH); conditions: without enzymatic activation, cited from earlier work
AlDH [2] = assay: Initial screen: elevation of blood acetaldehyde (AcH) after ethanol in rats, prodrug 1.0 mmol/kg ip; format: in vivo; conditions: rat; for potency in elevating ethanol-derived blood AcH (in words): 3 hours post-drug; for elevation of blood AcH over drug-free controls at 3 hours: ethanol 2 g/kg ip at 2 hours, sacrifice 3 hours post-drug; for elevation of blood AcH over controls at 16 hours: ethanol 2 g/kg ip at 15 hours, sacrifice 16 hours post-drug; for duration of action / blood AcH at 16 hours (in words): 16 hours post-drug
Description: Compounds 1-11 were evaluated in rats for their ability to elevate and maintain blood acetaldehyde (AcH) levels following ethanol administration employing the methodology outlined in Table I.
1. Drug Dose: 1.0 mmol/kg (ip)
2. Animals: Male rats of Sprague-Dawley descent (BioLab, Inc., St. Paul, MN), weighing 185-225 g were used. Four animals were used for each drug administration protocol.
3. Timing: Animals were fasted beginning at 7:00 or 8:00 AM. One group of rats were administered the prodrug at 5:00 PM (zero time) and ethanol (2 g/kg, ip) at 8:00 AM (15 hours), and the animals were sacrificed at 9:00 AM (16 hours). A second set of rats received the prodrug at 6:30 AM (zero time) and ethanol at 8:30 AM (2 hours) and the animals were sacrificed at 9:30 AM (3 hours). Cyanamide treated animals (1.0 mmol/kg) served as positive control. Blood AcH levels were determined as described hereinbelow.
(§1) Blood AcH levels were measured 1 hour after ethanol (2 g/kg, ip) in treated and control animals essentially as described by Shirota et al., in J. Med Chem., 23, 669 (1980). The animal was stunned by a quick blow to the head and blood was immediately withdrawn by open chest cardiac puncture. Aliquots (0.2 ml) were placed in 20 ml serum vials containing 1.0 ml of 5 mM sodium azide (to minimize the artifactual generation of AcH from ethanol), and the vials immediately capped with a rubber septum, frozen on Dry Ice, and kept frozen at -20° C. until assayed. AcH was determined in duplicate by the head-space gas chromatographic procedure previously described by Nagasawa et al., in Life Sci., 20, 187 (1977), and quantitated using a standard curve based on standards with known concentrations of AcH.

[3] = Stability of the purified compound on standing; format: physicochemical; conditions: clear colorless liquid, storage at 5° C.
Description: n-Butyryl chloride (3.2 g, 3.12 ml, 0.030 mol) in 50 ml of freshly distilled dry THF was added drop-wise to a suspension of sodium cyanamide (5.76 g, 0.090 mol) in 100 ml of freshly distilled dry THF at ice bath temperature. The reaction was allowed to proceed at room temperature for 24 hours and then the mixture evaporated to dryness in vacuo. The resulting yellow solid residue was dissolved in distilled water (50 ml) and the alkaline solution was adjusted to pH 6.5 with 10% HCl. The mixture was then extracted with ethyl acetate (2×50 ml). […] TLC: Rf =0.6 in EtOAC/petroleum ether/AcOH (50:100:1), detected by UV quenching and orange color with ferricyanide spray reagent; IR (neat, cm^-1) 3100-3250 (NH), 2860-2960 (alkyl), 2260 (C≡N), 1725 (C=0); NMR (Silanor C, δ from TMS) 8.2-8.5 (broad, NH), 2.3-2.6 (t, --CH2 --CH2 --C=O), 1.5-1.9 (sextet, CH3 --CH2 --CH2 --), 0.8-1.1 (t, CH3 --CH2 --); CI--MS (NH 3 : positive) m/z (rel. intensity) 147 (12.6, [(M+1)+2NH3 ]), 130 (100.0) [(M+1)+NH3 ], 105 (5.2) [(M+1)+2NH3 --H2 NCN]; CI--MS (NH3 : negative) m/z (rel. intensity) 111 (100.0) [M-1], 68 (2.0) [(M-1)--CH3 CH2 CH2 ], 41 (16.7) [(M-1)--CH3 CH2 CH=C=O].

AlDH [4] = assay: Time course protocol (72 hour), ip: blood AcH after ethanol in rats; format: in vivo; conditions: rat; for duration of blood AcH elevation over 72-hour time course (in words) / time at which blood AcH elevation reached maximum: FIG. 5 (0.5 mmol/kg); for time at which blood AcH elevation reached maximum: ethanol 2 g/kg ip 1 hour before sacrifice
Description: FIG. 5 is a graphic depiction of the effectiveness of four of the compositions of the invention in elevating blood AcH following ethanol administration in rats over a 72 hour time course (0.5 mmol/kg i.p. dose).
(§2) 1. Drug Dose: 0.5 mmol/kg (ip); 1.0 mmol/kg (po)
(§3) 2. Animals: Male rats of Sprague-Dawley descent (BioLab, Inc., St. Paul, MN), weighing 176-200 g were used. Two animals were used for each drug administration protocol.
(§4) 3. Timing: Overnight fasted animals were administered the prodrug at zero time, ethanol (2 g/kg, ip) at 1, 4, 11, 23, 35, 47 and 71 hours and sacrificed 1 hour subsequent to each ethanol administration. Cyanamide treated animals (1.0 mmol/kg) served as positive control.
as §1

AlDH [5] = assay: Time course protocol (72 hour), oral: blood AcH after ethanol in rats; format: in vivo; conditions: rat, 1.0 mmol/kg po, FIG. 6
Description: FIG. 6 is a graphic depiction of the effectiveness of palmitoylcyanamide and N-benzoyl-L-leucylcyanamide, administered orally, in elevating blood AcH following ethanol administration in rats over a 72 hour time course.
as §2, §3, §4, §1

[6] = rat, within 6 hours; cited from earlier work
[7] = tested on: aldehyde dehydrogenase (AlDH); conditions: clinical use, background statement; cited from earlier work

CC(=O)NC#N [AC, acetylcyanamide]
AlDH inhibitory activity in vitro [1]: devoid of AlDH inhibitory activity in vitro

CC(=O)NC#N.[Na] [Compound 1, Sodium Acetylcyanamide]
potency in elevating ethanol-derived blood AcH (in words) (AlDH [2]): much weaker than cyanamide
elevation of blood AcH over drug-free controls at 3 hours (AlDH [2]): 25 fold

N#CNC(=O)c1ccccc1 [Compound 2, Benzoylcyanamide]
elevation of blood AcH over controls at 16 hours (AlDH [2]): 10 fold

CC(C)(C)C(=O)NC#N [Compound 3, Pivaloylcyanamide]
potency in elevating ethanol-derived blood AcH (in words) (AlDH [2]): very potent
duration of action / blood AcH at 16 hours (in words) (AlDH [2]): short acting

N#CNC(=O)C12CC3CC(CC(C3)C1)C2.N#CNC(=O)C12CC3CC(CC(C3)C1)C2 [Compound 4, 1-Adamantanecarbonyl Cyanamide (1-Adamantoylcyanamide)]
potency in elevating ethanol-derived blood AcH (in words) (AlDH [2]): very potent
duration of action / blood AcH at 16 hours (in words) (AlDH [2]): short acting

CCCC(=O)NC#N [Compound 5, n-Butyrylcyanamide]
potency in elevating ethanol-derived blood AcH (in words) (AlDH [2]): even more potent than cyanamide itself
duration of action / blood AcH at 16 hours (in words) (AlDH [2]): short-acting
elevation of blood AcH over drug-free controls at 3 hours (AlDH [2]): 170 fold
elevation of blood AcH over controls at 16 hours (AlDH [2]): approximately 20 fold
stability on standing [3]: decomposes on standing even at 5 °C after prolonged periods

CCCCCCCCCCCCCCCC(=O)NC#N [Compound 6, Palmitoylcyanamide]
potency in elevating ethanol-derived blood AcH (in words) (AlDH [2]): almost as potent as cyanamide
elevation of blood AcH over controls at 16 hours (AlDH [2]): 100 fold
duration of blood AcH elevation over 72-hour time course (in words) (AlDH [4]): significantly elevated even at 48 hours
time at which blood AcH elevation reached maximum (AlDH [4]): around 5 hours
time at which AcH levels once again increased (AlDH [5]): 24 h
time at which blood AcH fell back to control levels (AlDH [5]): around 36 hours
time of maximum AcH levels (AlDH [5]): 2 h
time of trough of AcH levels (AlDH [5]): 12 h

CCCCCCCCCCCCCCCCCC(=O)NC#N [Compound 7, Stearoylcyanamide]
potency in elevating ethanol-derived blood AcH (in words) (AlDH [2]): almost as potent as cyanamide
elevation of blood AcH over controls at 16 hours (AlDH [2]): more than 50 fold
duration of blood AcH elevation over 72-hour time course (in words) (AlDH [4]): gradually fell
time at which blood AcH elevation reached maximum (AlDH [4]): around 5 hours

N#CNC(=O)OCc1ccccc1.[Na] [Compound 8, N-Carbobenzoxycyanamide, Sodium Salt]
elevation of blood AcH over drug-free controls at 3 hours (AlDH [2]): 120 fold

N#CNC(=O)CNC(=O)OCc1ccccc1 [Compound 9, N-Carbobenzoxyglycylcyanamide]
duration of action / blood AcH at 16 hours (in words) (AlDH [2]): reduced to almost control levels
elevation of blood AcH over drug-free controls at 3 hours (AlDH [2]): more than 80 fold

N#CNC(=O)CNC(=O)c1ccccc1.N#CNC(=O)CNC(=O)c1ccccc1 [Compound 10, N-Benzoylglycylcyanamide (Hippurylcyanamide)]
potency in elevating ethanol-derived blood AcH (in words) (AlDH [2]): less potent than N-benzoyl-L-leucylcyanamide (11)
duration of action / blood AcH at 16 hours (in words) (AlDH [2]): long-acting with significant levels of blood AcH present
duration of blood AcH elevation over 72-hour time course (in words) (AlDH [4]): failed to maintain elevated blood AcH past 12 hours

CC(C)C[C@H](NC(=O)c1ccccc1)C(=O)NC#N [Compound 11, N-Benzoyl-L-leucylcyanamide]
potency in elevating ethanol-derived blood AcH (in words) (AlDH [2]): elevated blood AcH levels
duration of action / blood AcH at 16 hours (in words) (AlDH [2]): long-acting with significant levels of blood AcH present
duration of blood AcH elevation over 72-hour time course (in words) (AlDH [4]): continued to maintain elevated blood AcH even at 72 hours
initial blood AcH level at 2 hours compared with cyanamide (AlDH [4]; FIG. 5, 2 hours): less than cyanamide
time at which AcH levels once again increased (AlDH [5]): 24 h
time at which blood AcH fell back to control levels (AlDH [5]): around 36 hours
time of maximum AcH levels (AlDH [5]): 2 h
time of trough of AcH levels (AlDH [5]): 12 h

CC(C)C[C@H](NC(=O)CNC(=O)OCc1ccccc1)C(=O)NC#N [Compound 12, N-Cbz-glycyl-L-leucylcyanamide]
potency in elevating ethanol-derived blood AcH (in words) (AlDH [2]): more potent than (9)
duration of action / blood AcH at 16 hours (in words) (AlDH [2]): did not maintain significantly elevated blood AcH level

N#CNC(=O)[C@@H]1CCC(=O)N1C(=O)OCc1ccccc1 [Compound 13, N-Cbz-L-pyroglutamylcyanamide]
potency in elevating ethanol-derived blood AcH (in words) (AlDH [2]): not nearly as potent as the other prodrugs

CC(C)C[C@H](NC(=O)[C@@H]1CCC(=O)N1)C(=O)NC#N [Compound 14, L-Pyroglutamyl-L-leucylcyanamide]
potency in elevating ethanol-derived blood AcH (in words) (AlDH [2]): not nearly as potent as the other prodrugs

N#CNC(=O)[C@H](Cc1ccccc1)NC(=O)[C@@H]1CCC(=O)N1 [Compound 15, L-Pyroglutamyl-L-phenylalanylcyanamide]
potency in elevating ethanol-derived blood AcH (in words) (AlDH [2]): very potent inhibitor of AlDH in vivo
elevation of blood AcH over drug-free controls at 3 hours (AlDH [2]): more than 110 fold

N#CN [Cyanamide, cyanamide]
elevation of blood AcH over drug-free controls at 3 hours (AlDH [2]): 150 fold
elevation of blood AcH over controls at 16 hours (AlDH [2]): more than 25 fold
duration of blood AcH elevation over 72-hour time course (in words) (AlDH [4]): fell rapidly almost to control values at 36 hours
time at which blood AcH elevation reached maximum (AlDH [4]): ≤ 2 h
AlDH inhibitory activity in vitro ([1]; listed as cyanamide): devoid of AlDH inhibitory activity in vitro
AlDH inhibitory activity in vitro [1]: does not inhibit AlDH
administered cyanamide eliminated as acetylcyanamide in the urine [6]: At least 94%

[Ca+2].[N-]=C=[N-] [calcium carbimide]
duration of activity [7]: approximately 24 hours
